Laboratory results from patent US20020018788A1, “PREPARATION PROTECTING SKIN FROM MECHANICAL IRRITATION” (priority 1996, published 2002).

Assays:
[1] = pure form; in water and in lower alcohols, such as methanol and ethanol; cited from earlier work
[2] = tested on: mechanical skin irritation; assay: Thermal conductivity of the skin (microcirculation), skin cut by scraping, group 1; assay type: in vivo, healthy female volunteers; conditions: for % Variation, treated area/untreated area 1 (microcirculation): 4% (weight/volume) in distilled water, mean ± standard error; for % Variation, treated area/untreated area 1 (microcirculation) / Mean values of thermal conductivity (K), treated area: n=6
Experimental: (§1) The effect of trimethylglycine on the skin was studied by measuring the thermal conductivity of the skin by a method described by A. Dittmar in Cutaneous investigation in health and disease. Non-invasive methods and instrumentation, ed. J. L. Lévêque, Marcel Dekker Inc., New York-Basel, 1989. The method correlates directly with microcirculation on the skin. Thermal conductivity (K) is measured from the skin with a specific Hematron® thermal sensor and transformed into an electric signal, which is recorded by a recorder. In thermal conductivity (ΔK), a significant level of variation is 0.1 mW/cm.°C.
(§2) The test was conducted on two test groups, each one of which comprised six healthy female volunteers. In the first test group (group 1), four cutaneous test areas were defined on the arm of each subject, and microcirculation was first measured for 30 minutes before the preparation was added. The skin was then cut by scraping in all the four areas, and onto the skin was pressed a filter paper into which a solution had been absorbed that contained 14 μl/cm^2 of 4% (weight/volume) trimethylglycine in distilled water, or only distilled water (placebo). Subsequently, microcirculation was measured for 60 minutes at the erythematous, damaged points on the skin, treated with the solution.
(§3) The thermal conductivity values measured on each volunteer subject are shown in table 1 (group 1) and table 2 (group 2). Tables 1 and 2 show the mean values (n=6) of thermal conductivity (K expressed as mW/cm .°C.) in the treated area, placebo area, and untreated areas at different instances of measuring. In tables 1 and 2, the treated area means an area treated with a preparation containing trimethylglycine; untreated area 1 is an untreated area that is symmetric with the area treated with the preparation containing trimethylglycine; the placebo area means an area treated with a placebo; and untreated area 2 is an untreated area that is symmetric with the area treated with the placebo.
(§4) Per /cent (%) variations between the treated area and untreated area 1, and the placebo area and untreated area 2 were calculated for each volunteer subject 30 and 60 min after application of the product. The variations were calculated using the formula [formula]

thermal skin irritation = assay: Thermal conductivity of the skin (microcirculation), infrared irradiation, group 2; assay type: in vivo, healthy female volunteers
Experimental: as §1
In the second test group (group 2), the subjects' microcirculation was measured at the erythema in the same way as above, but the irritation was here caused by 30-minute infrared irradiation (IR Philips 250 S lamps, spectrum 700 to 2500 nm, power 250 W, light energy 70 mW/cm^2, irradiation area 14 cm^2) in the four cutaneous areas defined on the upper back.
as §3, §4

skin = assay: Tolerance of the preparation by the subjects in both tests; assay type: in vivo, healthy female volunteers; conditions: topical 4% (weight/volume) preparation
Experimental: as §2, with “solution. In the second test group (group 2), the subjects' microcirculation was measured at the erythema in the same way as above, but the irritation was here caused by 30-minute infrared irradiation (IR Philips 250 S lamps, spectrum 700 to 2500 nm, power 250 W, light energy 70 mW/cm^2, irradiation area 14 cm^2) in the four cutaneous areas defined on the upper back.” for “solution.”

## C[N+](C)(C)CC(=O)[O-] [trimethylglycine]
[1]
  Solubility: readily soluble
[2]; group 1, t30 min
  % Variation, treated area/untreated area 1 (microcirculation): -8.9±8.6%
[2]; group 1, t60 min
  % Variation, treated area/untreated area 1 (microcirculation): -15.0±8.8%
[2]; group 1, 4% (weight/volume) in water, effect detected 60 min after the application
  Effect against mechanical erythema as compared with the placebo: effective against mechanical erythema
[2]; t0, before application of product, arm skin
  Mean values of thermal conductivity (K), treated area: 3.82 ± 0.59 mW/cm · ° C.
[2]; t30, 30 min after application of 4% (weight/volume) trimethylglycine in distilled water, 14 μl/cm^2, skin cut by scraping
  Mean values of thermal conductivity (K), treated area: 3.66 ± 0.69 mW/cm · ° C.
[2]; t60, 60 min after application of 4% (weight/volume) trimethylglycine in distilled water, 14 μl/cm^2, skin cut by scraping
  Mean values of thermal conductivity (K), treated area: 3.42 ± 0.41 mW/cm · ° C.
Thermal skin irritation; group 2, t30 min, 4% (weight/volume) in distilled water, mean ± standard error, n=6
  % Variation, treated area/untreated area 1 (microcirculation): 23.5±11.8%
Thermal skin irritation; group 2, preparation containing trimethylglycine
  Effect on thermal erythema: no effect on thermal erythema
Thermal skin irritation; t0, before application of product, upper back, n=6
  Mean values of thermal conductivity (K), treated area: 3.13 ± 0.30 mW/cm · ° C.
Thermal skin irritation; t30, 30 min after application of 4% (weight/volume) trimethylglycine in distilled water, 30-minute infrared irradiation, n=6
  Mean values of thermal conductivity (K), treated area: 3.85 ± 0.31 mW/cm · ° C.
Thermal skin irritation; t60, 60 min after application of 4% (weight/volume) trimethylglycine in distilled water, 30-minute infrared irradiation, n=6
  Mean values of thermal conductivity (K), treated area: 3.60 ± 0.38 mW/cm · ° C.
skin
  Tolerance / sensitivity of the subjects: tolerated the trimethylglycine preparation well
